Like-named read-outs stand apart in the source and are kept apart here.
What was measured:
hDM21-188 (hDM2) [1] = molecular target: T1, hDM21-188 (hDM2) (Homo sapiens, UniProt Q00987); assay: Competition fluorescence polarization (cFP) assay, inhibition of p53AD^Flu·hDM2 complexation; format: binding
[2] = Analytical ultracentrifugation, oligomeric state; format: physicochemical
hDM21-188 (hDM2) [3] = molecular target: T1, hDM21-188 (hDM2); assay: Direct fluorescence polarization binding of fluorescein-labeled ligands to hDM2
IZN17 [4] = assay: Direct fluorescence polarization binding to gp41 model IZN17; parameters: species or system HIV; details: fluorescein-labeled ligand, direct FP; read-out: equilibrium affinity (Kd) for IZN17
[5] = system: HeLa-CD4-LTR-β-gal cells and CHO-SEC cells; assay: Cell-fusion assay (syncitia formation), gp41 mediated fusion; format: cell-based, HIV-1; details: read-out: EC50, inhibition of cell-cell-fusion
IZN17 [6] = assay: Competition fluorescence polarization, inhibition of C14wt^Flu·IZN17 complexation; parameters: species or system HIV; details: read-out: IC50, competition with C14wt^Flu for IZN17 binding
calmodulin = calmodulin (Homo sapiens, UniProt P0DP23); details: read-out: Kd for calmodulin
carbonic anhydrase II = carbonic anhydrase II (Homo sapiens, UniProt P00918); details: read-out: Kd for carbonic anhydrase II
CREB KID·CBP KIX complex = CREB KID·CBP KIX complex (Homo sapiens, UniProt Q92793); assay: Inhibition of formation of the unrelated CREB KID·CBP KIX complex; format: binding; details: specificity control
CREB KID·CBP KIX complex, sequence (Q92793 587-666 limits assumed, one chain of several): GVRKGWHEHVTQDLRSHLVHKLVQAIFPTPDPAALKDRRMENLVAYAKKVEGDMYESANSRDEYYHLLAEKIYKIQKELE

[7] = Circular dichroism: extent of 14-helix structure in aqueous buffer; format: physicochemical; details: initial CD comparison of β53-1D and β53-1
[8] = fluorescein-labeled ligand, read-out: Kd, apparent equilibrium dissociation constant of complexes between fluorescein-labeled ligands and hDM2
[9] = read-out: IC50, inhibition of p53AD^Flu·hDM2 interaction
[10] = read-out: binding affinity (Kd) for hDM2
[11] = competition FP, unlabeled ligand
[12] = concentrations between 80 and 400 μM

T1 sequence (Q00987 1-188 limits assumed): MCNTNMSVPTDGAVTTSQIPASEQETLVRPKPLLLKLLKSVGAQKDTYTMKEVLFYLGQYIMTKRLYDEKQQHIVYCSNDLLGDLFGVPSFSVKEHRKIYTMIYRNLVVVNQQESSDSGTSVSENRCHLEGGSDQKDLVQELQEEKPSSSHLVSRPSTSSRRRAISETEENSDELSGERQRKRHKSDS

`N[C@H](CC(=O)O)Cc1c[nH]c2ccccc12` [β^3W, β^3-homotyptophan, reference compound] gave an IC50 (hDM21-188 (hDM2) [1]; competition FP) of over 1000 µM.

With `CC(C)C[C@@H](CC(=O)N[C@@H](CCC(=O)O)CC(=O)N[C@H](CC(=O)N[C@H](CC(=O)N[C@@H](CCCN)CC(=O)N[C@H](CC(=O)N[C@H](CC(=O)N[C@@H](CCC(=O)O)CC(=O)O)Cc1ccccc1)C(C)C)Cc1c[nH]c2ccccc12)C(C)C)NC(=O)[C@H]1CCCC[C@@H]1NC(=O)C[C@@H](N)CCCN` [β53-AC2] the IC50 (hDM21-188 (hDM2) [1]; unlabeled ligand) was 15.5 ± 1 µM, the oligomeric state [2] was “no evidence of oligomerization” and the Kd (hDM21-188 (hDM2) [3]; [8]) was 0.21 ± 0.04 µM.

For `CC[C@H](C)[C@@H](CC(=O)N[C@H](CC(=O)N[C@@H](CCC(=O)O)CC(=O)O)C(C)C)NC(=O)C[C@H](CCCN)NC(=O)C[C@@H](NC(=O)C[C@H](Cc1c[nH]c2ccccc12)NC(=O)C[C@H](CCC(=O)O)NC(=O)C[C@@H](NC(=O)C[C@H](Cc1c[nH]c2ccccc12)NC(=O)C[C@@H](N)CCCN)C(C)C)C(C)C` [βWWI-3], the Kd (IZN17 [4]) was 2.4 ± 0.7 µM, the EC50 [5] was 13 ± 1.9 µM and the IC50 (IZN17 [6]) was 13 ± 4.1 µM.

For `CC[C@H](C)[C@@H](CC(=O)N[C@H](CC(=O)N[C@@H](CCC(=O)O)CC(=O)N[C@H](CC(=O)N[C@H](CC(=O)N[C@@H](CCCN)CC(=O)N[C@H](CC(=O)N[C@H](CC(=O)N[C@@H](CCC(=O)O)CC(=O)O)Cc1ccccc1)C(C)C)Cc1c[nH]c2ccccc12)[C@@H](C)CC)CC(C)C)NC(=O)C[C@@H](N)CCCN` [Hit 2], the IC50 (hDM21-188 (hDM2) [1]; [9]) was 11 ± 1 µM and the Kd (hDM21-188 (hDM2) [3]; [10]) was 0.089 ± 0.02 µM.

`CC[C@H](C)[C@@H](CC(=O)N[C@@H](CCC(=O)O)CC(=O)O)NC(=O)C[C@@H](NC(=O)C[C@H](CCCN)NC(=O)C[C@H](Cc1c[nH]c2ccccc12)NC(=O)C[C@@H](NC(=O)C[C@H](CCC(=O)O)NC(=O)C[C@H](Cc1c[nH]c2ccccc12)NC(=O)C[C@@H](NC(=O)C[C@@H](N)CCCN)C(C)C)C(C)C)C(C)C` [βWWI-4] gave a Kd (IZN17 [4]) of 1.5 ± 0.4 µM, an EC50 [5] of 5.3 ± 0.5 µM and an IC50 (IZN17 [6]) of 3.3 ± 1.4 µM.

In the case of `CC(C)C[C@H](N)CC(=O)N[C@@H](CCC(=O)O)CC(=O)N[C@H](CC(=O)N[C@H](CC(=O)N[C@@H](CCCN)CC(=O)N[C@H](CC(=O)N[C@H](CC(=O)N[C@@H](CCC(=O)O)CC(=O)O)Cc1ccccc1)C(C)C)Cc1c[nH]c2ccccc12)C(C)C` [β53-5], the IC50 (hDM21-188 (hDM2) [1]; [11]) is reported as 80.8 ± 3.2 µM.

With `CC(C)C[C@@H](CC(=O)N[C@@H](CCC(=O)O)CC(=O)N[C@H](CC(=O)N[C@H](CC(=O)N[C@@H](CCCN)CC(=O)N[C@H]1CCCC[C@@H]1C(=O)N[C@H](CC(=O)N[C@@H](CCC(=O)O)CC(=O)O)Cc1ccccc1)Cc1c[nH]c2ccccc12)C(C)C)NC(=O)C[C@@H](NC(=O)C[C@@H](N)CCCN)C(C)C` [β53-AC8] the IC50 (hDM21-188 (hDM2) [1]; unlabeled ligand) was 10.5 ± 0.8 µM, the oligomeric state [2] was “could indicate a monomer-dimer equilibrium at low millimolar concentrations” and the Kd (hDM21-188 (hDM2) [3]; [8]) was 0.22 ± 0.06 µM.

With `CC(C)C[C@@H](CC(=O)N[C@@H](CCC(=O)O)CC(=O)N[C@H]1CCCC[C@@H]1C(=O)N[C@H](CC(=O)N[C@@H](CCCN)CC(=O)N[C@H](CC(=O)N[C@H](CC(=O)N[C@@H](CCC(=O)O)CC(=O)O)Cc1ccccc1)C(C)C)Cc1c[nH]c2ccccc12)NC(=O)C[C@@H](NC(=O)C[C@@H](N)CCCN)C(C)C` [β53-AC5] the IC50 (hDM21-188 (hDM2) [1]; unlabeled ligand) was 60.3 ± 3.8 µM, the oligomeric state [2] was “discrete higher-order oligomers, likely hexamers or heptamers” and the Kd (hDM21-188 (hDM2) [3]; [8]) was 0.21 ± 0.04 µM.

In the case of `CC[C@H](C)[C@@H](CC(=O)N[C@@H](CCC(=O)O)CC(=O)N[C@H](CC(=O)N[C@H](CC(=O)N[C@@H](CCCN)CC(=O)N[C@H](CC(=O)N[C@H](CC(=O)N[C@@H](CCC(=O)O)CC(=O)O)Cc1c[nH]c2ccccc12)C(C)C)Cc1c[nH]c2ccccc12)C(C)C)NC(=O)C[C@@H](NC(=O)C[C@@H](N)CCCN)C(C)C` [βWWI-1], the Kd (calmodulin) is reported as at least 100 µM, the Kd (IZN17 [4]) is reported as 0.75 ± 0.1 µM and the Kd (carbonic anhydrase II) is reported as at least 115 µM. It also gave an EC50 [5] of 27 ± 2.5 µM and an IC50 (IZN17 [6]) of 4 ± 0.7 µM.

For `CC[C@H](C)[C@@H](CC(=O)N[C@H](CC(=O)N[C@@H](CCC(=O)O)CC(=O)N[C@H](CC(=O)N[C@H](CC(=O)N[C@@H](CCCN)CC(=O)N[C@H](CC(=O)N[C@H](CC(=O)N[C@@H](CCC(=O)O)CC(=O)O)C(C)C)Cc1c[nH]c2ccccc12)C(C)C)Cc1c[nH]c2ccccc12)C(C)C)NC(=O)C[C@@H](N)CCCN` [βWWI-2], the Kd (IZN17 [4]) was 1 ± 0.3 µM, the EC50 [5] was 15 ± 1.6 µM and the IC50 (IZN17 [6]) was 4.6 ± 0.4 µM.

For `CC(C)[C@H](N)CC(=O)N[C@H](CC(=O)N[C@@H](CCC(=O)O)CC(=O)NCCC(=O)O)Cc1c[nH]c2ccccc12` [β53-7, reference compound], the IC50 (hDM21-188 (hDM2) [1]; competition FP) was over 1000 µM.

Work on `CC[C@H](C)[C@@H](CC(=O)N[C@H](CC(=O)N[C@@H](CCC(=O)O)CC(=O)N[C@H](CC(=O)N[C@H](CC(=O)N[C@@H](CCCN)CC(=O)N[C@H](CC(=O)N[C@H](CC(=O)N[C@@H](CCC(=O)O)CC(=O)O)Cc1ccccc1)[C@@H](C)CC)Cc1c[nH]c2ccccc12)[C@@H](C)CC)CC(C)C)NC(=O)C[C@@H](N)CCCN` [Hit 1] yielded an IC50 (hDM21-188 (hDM2) [1]; [9]) of 13 ± 1 µM and a Kd (hDM21-188 (hDM2) [3]; [10]) of 0.055 ± 0.008 µM.

In the case of `CC(C)C[C@@H](CC(=O)N[C@@H](CCC(=O)O)CC(=O)N[C@H]1CCCC[C@@H]1C(=O)N[C@H](CC(=O)N[C@@H](CCCN)CC(=O)N[C@H]1CCCC[C@@H]1C(=O)N[C@H](CC(=O)N[C@@H](CCC(=O)O)CC(=O)O)Cc1ccccc1)Cc1c[nH]c2ccccc12)NC(=O)[C@H]1CCCC[C@@H]1NC(=O)C[C@@H](N)CCCN` [β53-ACtrip], the IC50 (hDM21-188 (hDM2) [1]; unlabeled ligand) is reported as 17.2 ± 1.3 µM, the oligomeric state [2] is reported as “discrete higher-order oligomers, likely hexamers or heptamers” and the Kd (hDM21-188 (hDM2) [3]; [8]) is reported as 0.17 ± 0.05 µM.

With `CC(C)[C@H](N)CC(=O)N[C@H](CC(=O)N[C@@H](CCCN)CC(=O)N[C@H](CC(=O)N[C@H](CC(=O)N[C@@H](CCC(=O)O)CC(=O)O)Cc1ccccc1)C(C)C)Cc1c[nH]c2ccccc12` [β53-6] the “IC50 fold better than β53-1 and β53-5” value (hDM21-188 (hDM2) [1]) was “over 2 fold” and the IC50 (hDM21-188 (hDM2) [1]; [11]) was 36.2 ± 2.6 µM.

For `CC(C)[C@@H](CC(=O)N[C@H](CC(=O)N[C@@H](CCCN)CC(=O)N[C@H](CC(=O)N[C@@H](C)CC(=O)N[C@@H](CCC(=O)O)CC(=O)O)C(C)C)Cc1c[nH]c2ccccc12)NC(=O)C[C@H](CCC(=O)O)NC(=O)C[C@H](C)NC(=O)C[C@@H](NC(=O)C[C@@H](N)CCCN)C(C)C` [β53-W6], the “IC50 value fold higher than that of β53-1” value (hDM21-188 (hDM2) [1]) was 2 fold and the IC50 (hDM21-188 (hDM2) [1]; [11]) was 198 ± 10 µM.

For `CC(C)[C@@H](CC(=O)N[C@H](CC(=O)N[C@@H](CCC(=O)O)CC(=O)O)Cc1ccccc1)NC(=O)C[C@H](CCCN)NC(=O)C[C@H](C)NC(=O)C[C@@H](NC(=O)C[C@H](CCC(=O)O)NC(=O)C[C@H](C)NC(=O)C[C@@H](NC(=O)C[C@@H](N)CCCN)C(C)C)C(C)C` [β53-F9], the IC50 (hDM21-188 (hDM2) [1]; [11]) was 1700 ± 163 µM.

For `CC(C)C[C@@H](CC(=O)N[C@H](CC(=O)N[C@@H](CCC(=O)O)CC(=O)N[C@H](CC(=O)N[C@H](CC(=O)N[C@@H](CCCN)CC(=O)N[C@H](CC(=O)N[C@H](CC(=O)N[C@@H](CCC(=O)O)CC(=O)O)C(C)C)Cc1ccccc1)C(C)C)Cc1c[nH]c2ccccc12)C(C)C)NC(=O)C[C@@H](N)CCCN` [β53-3], the IC50 (hDM21-188 (hDM2) [1]) was 1590 ± 104 µM and the oligomeric state [2, 12] was “monomeric”.

For `CC(C)C[C@@H](CC(=O)N[C@@H](CCC(=O)O)CC(=O)N[C@H](CC(=O)N[C@H](CC(=O)N[C@@H](CCCN)CC(=O)N[C@H](CC(=O)N[C@H](CC(=O)N[C@@H](CCC(=O)O)CC(=O)O)Cc1ccccc1)C(C)C)Cc1c[nH]c2ccccc12)C(C)C)NC(=O)C[C@@H](NC(=O)C[C@@H](N)CCCN)C(C)C` [β53-1], the IC50 (hDM21-188 (hDM2) [1]; [11]) was 94.5 ± 4.4 µM, the oligomeric state ([2]; at concentrations exceeding 1 mM) was “monomeric” and the oligomeric state [2, 12] was “monomeric”. For the same molecule, the Kd (hDM21-188 (hDM2) [3]; [8]) was 0.37 ± 0.08 µM, the “inhibition of formation of CREB KID·CBP KIX complex” value (CREB KID·CBP KIX complex) was “failed to inhibit” and the mean residue ellipticity [7] was −8450.4 deg·cm^2·dmol^−1.

Work on `CC(C)C[C@@H](CC(=O)N[C@@H](CCC(=O)O)CC(=O)N[C@H](CC(=O)N[C@@H](C)CC(=O)N[C@@H](CCCN)CC(=O)N[C@H](CC(=O)N[C@@H](C)CC(=O)N[C@@H](CCC(=O)O)CC(=O)O)C(C)C)C(C)C)NC(=O)C[C@@H](NC(=O)C[C@@H](N)CCCN)C(C)C` [β53-L3] yielded an IC50 (hDM21-188 (hDM2) [1]; [11]) of over 7000 µM.

From patent US8008262B2, “β-peptides” (Yale University, priority 2004, dated 2011)
